Assay results from patent US8198273B2, “Compounds and methods for kinase modulation, and indications therefor” (Plexxikon Inc., priority 2009, dated 2012).

What was measured:
[1] = tested on: COLO205 colon adenocarcinoma cells (B-Raf V600E); test: COLO205 cell growth inhibition (ATPlite); format: cell-based; conditions: Homo sapiens, COLO 205, 72 h; COLO205, 3 days incubation
Summary of the method: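 ATPlite luminescence, taken as a cell-number measure, gave IC50 values after a 3-day 37° C, 5% CO2 incubation. Compounds were tested as 8-point threefold titrations, highest final concentration 10 μM, added to cells seeded the day before.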

[2] = Relative solubility by turbidity in aqueous buffers of varying pH; format: physicochemical; conditions: for turbidity threshold (L, M, H) 7.4: HEPES pH 7.4; for turbidity threshold (L, M, H) 4.5: SIF pH 4.5; for turbidity threshold (L, M, H) 6.8: SIF pH 6.8; for turbidity threshold (L, M, H) 1.4: buffer pH 1.4 (SGF)
Summary of the method: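 Turbidity endpoint: concentration where optical density at 490, 535 and 650 nm exceeds 0.01, three-wavelength average used. Buffers at pH 1.5, 4.5, 6.8 and 7.4; DMSO serial dilutions of 25 mM stock spiked 1 μL into 99 μL buffer. Low <31.3, moderate 31.3–250, high >250 μM.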

CYP2C9 = CYP2C9 (Homo sapiens, UniProt P11712); test: CYP2C9 inhibition (fluorescent substrate); format: in vitro ADME; conditions: CYP2C9, MFC substrate; read-out: Cyp IC50 2C9
Summary of the method: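 First, 100 mM DMSO stocks are diluted into acetonitrile, then twofold through co-factor mix for 10 points. Next, mixtures are preincubated 10 min at 37 °C.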

Sequence of CYP2C9 (P11712 whole entry): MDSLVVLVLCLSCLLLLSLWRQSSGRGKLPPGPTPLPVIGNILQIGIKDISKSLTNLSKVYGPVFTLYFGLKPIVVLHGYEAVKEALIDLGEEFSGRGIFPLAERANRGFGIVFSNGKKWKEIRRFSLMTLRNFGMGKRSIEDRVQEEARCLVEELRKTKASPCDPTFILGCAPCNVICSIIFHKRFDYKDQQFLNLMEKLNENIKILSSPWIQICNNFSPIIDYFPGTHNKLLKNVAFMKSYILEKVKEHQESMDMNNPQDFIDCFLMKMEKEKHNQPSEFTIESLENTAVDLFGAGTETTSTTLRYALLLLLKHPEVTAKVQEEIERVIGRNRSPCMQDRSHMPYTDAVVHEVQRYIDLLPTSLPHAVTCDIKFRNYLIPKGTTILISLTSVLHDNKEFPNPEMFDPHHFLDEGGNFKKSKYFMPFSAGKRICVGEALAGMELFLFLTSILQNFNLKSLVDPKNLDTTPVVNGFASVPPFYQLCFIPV

Structure (SMILES) | IC50 [1] | IC50 (CYP2C9) | turbidity threshold (L, M, H) 7.4 [2] | turbidity threshold (L, M, H) 4.5 [2] | turbidity threshold (L, M, H) 6.8 [2] | turbidity threshold (L, M, H) 1.4 [2]
Cc1cnc2[nH]cc(C(=O)c3c(F)ccc(NS(=O)(=O)c4cccc(F)c4)c3F)c2c1 [P-2016, N-[2,4-Difluoro-3-(5-methyl-1H-pyrrolo[2,3-b]pyridine-3-carbonyl)-phenyl]-3-fluoro-benzenesulfonamide] | < 5 µM | < 5 µM | M (moderate solubility if the threshold concentration is 31.3 μM to 250 μM) | L (low solubility if the threshold concentration is <31.3 04) | M (moderate solubility if the threshold concentration is 31.3 μM to 250 μM) | H (high solubility if the threshold concentration is >250 μM)
COc1ncc(-c2cnc3[nH]cc(C(=O)c4c(F)ccc(NS(=O)(=O)c5cccc(F)c5)c4F)c3c2)cn1 [P-2045, N-{2,4-Difluoro-3-[5-(2-methoxy-pyrimidin-5-yl)-1H-pyrrolo[2,3-b]pyridine-3-carbonyl]-phenyl}-3-fluoro-benzenesulfonamide] | < 1 µM | > 10 µM | M (moderate solubility if the threshold concentration is 31.3 μM to 250 μM) | L (low solubility if the threshold concentration is <31.3 04) | L (low solubility if the threshold concentration is <31.3 04) | L (low solubility if the threshold concentration is <31.3 04)
O=C(c1c(F)ccc(NS(=O)(=O)c2ccccc2F)c1F)c1c[nH]c2nccc(Cl)c12 [P-2017, N-[3-(4-Chloro-1H-pyrrolo[2,3-b]pyridine-3-carbonyl)-2,4-difluoro-phenyl]-2-fluoro-benzenesulfonamide] | < 5 µM | > 10 µM | M (moderate solubility if the threshold concentration is 31.3 μM to 250 μM) | M (moderate solubility if the threshold concentration is 31.3 μM to 250 μM) | M (moderate solubility if the threshold concentration is 31.3 μM to 250 μM) | M (moderate solubility if the threshold concentration is 31.3 μM to 250 μM)
CCCS(=O)(=O)Nc1ccc(F)c(C(=O)c2c[nH]c3ncc(-c4cnc(C)nc4)cc23)c1F [P-2211, Propane-1-sulfonic acid {2,4-difluoro-3-[5-(2-methyl-pyrimidin-5-yl)-1H-pyrrolo[2,3-b]pyridine-3-carbonyl]-phenyl}-amide] | < 1 µM | > 10 µM | M (moderate solubility if the threshold concentration is 31.3 μM to 250 μM) | M (moderate solubility if the threshold concentration is 31.3 μM to 250 μM) | M (moderate solubility if the threshold concentration is 31.3 μM to 250 μM) | M (moderate solubility if the threshold concentration is 31.3 μM to 250 μM)
COc1ccnc2[nH]cc(C(=O)c3c(F)ccc(NS(=O)(=O)c4cccc(F)c4)c3F)c12 [P-2023, N-[2,4-Difluoro-3-(4-methoxy-1H-pyrrolo[2,3-b]pyridine-3-carbonyl)-phenyl]-3-fluoro-benzenesulfonamide] | < 5 µM | 5 to 10 µM | M (moderate solubility if the threshold concentration is 31.3 μM to 250 μM) | M (moderate solubility if the threshold concentration is 31.3 μM to 250 μM) | M (moderate solubility if the threshold concentration is 31.3 μM to 250 μM) | H (high solubility if the threshold concentration is >250 μM)
CCCS(=O)(=O)Nc1ccc(F)c(C(=O)c2c[nH]c3ncc(-c4cnc(N(C)C)nc4)cc23)c1F [P-2196, Propane-1-sulfonic acid {3-[5-(2-dimethylamino-pyrimidin-5-yl)-1H-pyrrolo[2,3-b]pyridine-3-carbonyl]-2,4-difluoro-phenyl}-amide] | < 1 µM | 5 to 10 µM | L (low solubility if the threshold concentration is <31.3 04) | L (low solubility if the threshold concentration is <31.3 04) | L (low solubility if the threshold concentration is <31.3 04) | M (moderate solubility if the threshold concentration is 31.3 μM to 250 μM)
N#Cc1cnc2[nH]cc(C(=O)c3cccc(NS(=O)(=O)c4cc(F)ccc4F)c3F)c2c1 [P-2052, N-[3-(5-Cyano-1H-pyrrolo[2,3-b]pyridine-3-carbonyl)-2-fluoro-phenyl]-2,5-difluoro-benzenesulfonamide] | < 1 µM | < 5 µM | M (moderate solubility if the threshold concentration is 31.3 μM to 250 μM) | L (low solubility if the threshold concentration is <31.3 04) | M (moderate solubility if the threshold concentration is 31.3 μM to 250 μM) | L (low solubility if the threshold concentration is <31.3 04)

Further lines, with some results ahead:

IC50 [1] | IC50 (CYP2C9) | Structure (SMILES) | turbidity threshold (L, M, H) 7.4 [2] | turbidity threshold (L, M, H) 4.5 [2] | turbidity threshold (L, M, H) 6.8 [2] | turbidity threshold (L, M, H) 1.4 [2]
< 0.1 µM | > 10 µM | CCCS(=O)(=O)Nc1ccc(F)c(C(=O)c2c[nH]c3ncc(-c4ccc(OCCN5CCCC5)nc4)cc23)c1F [P-2233, Propane-1-sulfonic acid (2,4-difluoro-3-{5-[6-(2-pyrrolidin-1-yl-ethoxy)-pyridin-3-yl]-1H-pyrrolo[2,3-b]pyridine-3-carbonyl}-phenyl)-amide] | M (moderate solubility if the threshold concentration is 31.3 μM to 250 μM) | M (moderate solubility if the threshold concentration is 31.3 μM to 250 μM) | L (low solubility if the threshold concentration is <31.3 04) | L (low solubility if the threshold concentration is <31.3 04)
< 1 µM | 5 to 10 µM | CCCS(=O)(=O)Nc1ccc(F)c(C(=O)c2c[nH]c3ncc(-c4ccc(N5CCCC5)nc4)cc23)c1F [P-2231, Propane-1-sulfonic acid {2,4-difluoro-3-[5-(6-pyrrolidin-1-yl-pyridin-3-yl)-1H-pyrrolo[2,3-b]pyridine-3-carbonyl]-phenyl}-amide] | L (low solubility if the threshold concentration is <31.3 04) | L (low solubility if the threshold concentration is <31.3 04) | L (low solubility if the threshold concentration is <31.3 04) | L (low solubility if the threshold concentration is <31.3 04)
< 1 µM | 5 to 10 µM | CCCS(=O)(=O)Nc1cccc(C(=O)c2c[nH]c3ncc(-c4cnc(N(C)C)nc4)cc23)c1F [P-2408, Propane-1-sulfonic acid {3-[5-(2-dimethylamino-pyrimidin-5-yl)-1H-pyrrolo[2,3-b]pyridine-3-carbonyl]-2-fluoro-phenyl}-amide] | L (low solubility if the threshold concentration is <31.3 04) | L (low solubility if the threshold concentration is <31.3 04) | L (low solubility if the threshold concentration is <31.3 04) | L (low solubility if the threshold concentration is <31.3 04)
< 0.1 µM | 5 to 10 µM | CCCS(=O)(=O)Nc1ccc(F)c(C(=O)c2c[nH]c3ncc(-c4ccc(OCCN5CCOCC5)nc4)cc23)c1F [P-2232, Propane-1-sulfonic acid (2,4-difluoro-3-{5-[6-(2-morpholin-4-yl-ethoxy)-pyridin-3-yl]-1H-pyrrolo[2,3-b]pyridine-3-carbonyl}-phenyl)-amide] | L (low solubility if the threshold concentration is <31.3 04) | M (moderate solubility if the threshold concentration is 31.3 μM to 250 μM) | L (low solubility if the threshold concentration is <31.3 04) | M (moderate solubility if the threshold concentration is 31.3 μM to 250 μM)
< 1 µM | 5 to 10 µM | C#Cc1cnc2[nH]cc(C(=O)c3c(F)ccc(NS(=O)(=O)CCC)c3F)c2c1 [P-2260, Propane-1-sulfonic acid [3-(5-ethynyl-1H-pyrrolo[2,3-b]pyridine-3-carbonyl)-2,4-difluoro-phenyl]-amide] | L (low solubility if the threshold concentration is <31.3 04) | L (low solubility if the threshold concentration is <31.3 04) | L (low solubility if the threshold concentration is <31.3 04) | L (low solubility if the threshold concentration is <31.3 04)
